In this test the test system is Lysozyme. Put plainly: Test for the inhibitory activity on the formation of AGE (lysozyme dimer formation, SDS gel electrophoresis, densitometry). It is filed as biochemical. The conditions noted are these: AGE-inhibitory action, lysozyme 20 mg/ml, pH 7.4, 200 mmol/l glucose or xylose, 24 to 120 hours. How it is done:
Test for the inhibitory activity on the formation of AGE
Lysozyme is dissolved at a final concentration of 20 mg/ml in 100 mmol/l potassium phosphate buffer, pH 7.4. 5 mmol/l sodium azide is added as a preservative. The formation of AGE is initiated by the addition of 200 mmol/l glucose or xylose. Test substances or the reference substance aminoguanidine are added at different concentrations in order to quantify an inhibitory activity on AGE formation. Solvent controls as well as control mixes are also run in the presence of 200 mmol/l sorbitol or xylite for correction purposes. The incubation period of the reaction mixtures is between 24 and 120 hours depending on the sugar used and is selected in such a way that mainly dimers are formed and other higher molecular oligomerization products are formed only to a slight extent.
The samples are prepared and SDS gel electrophoresis is carried out according to literature references. Summarized briefly the samples are diluted with the 4-fold amount of sample buffer (50 mmol/l Tris^* acetate, pH 7.5, 1% SDS, 5 mmol/l dithiothreitol) and heated for 3 minutes to 95° C. Aliquots are applied to 8-18% gradient-SDS gels. In order to determine the molecular weight molecular weight markers are also used in the range 14-340 kD. The separation according to molecular weight is achieved under the following operating conditions: voltage: 600 V, current intensity: 50 mA, power: 30 W, run period: ~60 minutes.
After the gel electrophoresis the gels are fixed according to standard methods and stained with Coomassie Blue. After destaining overnight and drying, the gels are measured densitometrically (Pharmacia Ultra Scan XL using GelScan XL software).
In order to determine the threshold concentration and the IC50 values of the AGE-inhibitory action of the test substances, the dimer formation is plotted semi-logarithmically against the test concentration of the substance and the above-mentioned parameters are calculated.

We go through 8 compounds from US5731344A, “Bishispidine compounds, processes for their production and pharmaceutical agents containing these compounds” (Boehringer Mannheim GmbH, priority 1993, dated 1998).

Take `O=c1oc(/C=C/c2ccc(O)c(O)c2)cc(O)c1C(c1ccc(Cl)cc1)c1c(O)cc(/C=C/c2ccc(O)c(O)c2)oc1=O` [Example 1, 3,3'-(4-Chlorobenzylidene)bis[6-[2-(3,4-dihydroxyphenyl)vinyl]-4-hydroxy-2H-pyran-2-one]]: the IC50 (usually the concentration that gives 50% inhibition) is 4 µM and the Threshold concentration is > 1 µmol/L.

Regarding `COc1ccc(C(c2c(O)cc(/C=C/c3ccc(O)c(O)c3)oc2=O)c2c(O)cc(/C=C/c3ccc(O)c(O)c3)oc2=O)cc1O` [Example 3, 3,3'-(3-Hydroxy-4-methoxybenzylidene)bis[6-[2-(3,4-dihydroxyphenyl)vinyl]-4-hydroxy-2H-pyran-2-one]], the IC50 came to 2 µM and the Threshold concentration is > 1 µmol/L.

Regarding `CC(C)(C)c1cc(C(c2c(O)cc(/C=C/c3ccc(O)c(O)c3)oc2=O)c2c(O)cc(/C=C/c3ccc(O)c(O)c3)oc2=O)cc(C(C)(C)C)c1O` [Example 4, 3,3'-(4-Hydroxy-3,5-(bis-1,1-dimethylethyl)benzylidene]bis[6-[2-(3,4-dihydroxyphenyl)vinyl]-4-hydroxy-2H-pyran-2-one]], the midpoint of inhibition, the IC50, lay at 2 µM and the Threshold concentration was > 1 µmol/L.

`COc1ccc(C(c2c(O)cc(/C=C/c3ccc(O)c(O)c3)oc2=O)c2c(O)cc(/C=C/c3ccc(O)c(O)c3)oc2=O)cc1` [Example 5]: the concentration for half-maximal inhibition (IC50) turned out to be 2 µM and the Threshold concentration is > 1 µmol/L.

Turning to `COc1ccc(C(c2c(O)cc(/C=C/c3ccc(O)c(O)c3)oc2=O)c2c(O)cc(/C=C/c3ccc(O)c(O)c3)oc2=O)cc1OC` [Example 6], the IC50 is 5 µM and the Threshold concentration is > 1 µmol/L.

`O=c1oc(/C=C/c2ccc(O)c(O)c2)cc(O)c1C(c1ccc(O)c(O)c1)c1c(O)cc(/C=C/c2ccc(O)c(O)c2)oc1=O` [Example 7] registered a concentration for half-maximal inhibition (IC50) of 4 µM and a Threshold concentration of 2 µmol/L.

Turning to `N#Cc1ccc(C(c2c(O)cc(/C=C/c3ccc(O)c(O)c3)oc2=O)c2c(O)cc(/C=C/c3ccc(O)c(O)c3)oc2=O)cc1` [Example 8], the IC50 stood at 22 µM and the Threshold concentration worked out at 10 µmol/L.

With `N=C(N)NN` [aminoguanidine, reference compound], half-maximal inhibition (IC50) was put at 4500 µM and the Threshold concentration is 500 µmol/L.
